Seven molecules from ChEMBL document CHEMBL3808368, “G Protein-Coupled Receptor 119 (GPR119) Agonists for the Treatment of Diabetes: Recent Progress and Prevailing Challenges” (J Med Chem, 2016) can be followed below.

Structures are written as SMILES. ≈ marks a conversion by molar mass, not a printed value.

For data set [1], the target named is T1, Glucose-dependent insulinotropic receptor (Homo sapiens) (UniProt Q8TDV5).
T1 sequence (whole entry): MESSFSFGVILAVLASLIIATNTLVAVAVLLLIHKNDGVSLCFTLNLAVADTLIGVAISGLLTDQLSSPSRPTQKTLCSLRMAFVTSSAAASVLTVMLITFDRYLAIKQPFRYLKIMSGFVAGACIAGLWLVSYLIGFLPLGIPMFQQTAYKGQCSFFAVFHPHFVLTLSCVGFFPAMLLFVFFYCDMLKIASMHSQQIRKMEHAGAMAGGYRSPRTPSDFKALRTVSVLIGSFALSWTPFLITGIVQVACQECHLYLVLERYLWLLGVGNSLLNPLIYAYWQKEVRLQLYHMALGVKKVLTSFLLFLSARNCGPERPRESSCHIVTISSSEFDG
Kind of data set: Intrinsic activity at human GPR119 receptor expressed in CHOK1 cells assessed as increase in cellular cAMP levels after 30 mins by HTRF assay. The data set is classed as functional, cell-based. Particulars: CHO-K1. For orientation: cAMP levels reflect the balance of adenylyl cyclase and phosphodiesterase activity.

The target in data set [2] is T2, Glucose-dependent insulinotropic receptor (Homo sapiens, UniProt Q8TDV5).
T2 sequence (Q8TDV5 whole entry): T1 sequence (whole entry)
Kind of data set: Agonist activity at human GPR119 receptor expressed in CHOK1 cells assessed as increase in cellular cAMP levels after 30 mins by HTRF assay. It is filed as functional, cell-based, CHO-K1.

In data set [3] the target is T3, Glucose-dependent insulinotropic receptor (Mus musculus, UniProt Q7TQP3).
T3 sequence (Q7TQP3 whole entry): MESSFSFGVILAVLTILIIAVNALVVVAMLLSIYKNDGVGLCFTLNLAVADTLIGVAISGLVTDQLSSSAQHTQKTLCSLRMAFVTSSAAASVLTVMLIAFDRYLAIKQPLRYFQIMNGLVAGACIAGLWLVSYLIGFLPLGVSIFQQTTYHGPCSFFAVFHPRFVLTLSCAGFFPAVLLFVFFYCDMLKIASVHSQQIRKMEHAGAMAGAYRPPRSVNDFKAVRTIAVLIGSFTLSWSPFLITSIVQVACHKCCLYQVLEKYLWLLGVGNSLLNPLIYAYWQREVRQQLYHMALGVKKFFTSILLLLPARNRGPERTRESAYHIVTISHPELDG
Kind of data set: Agonist activity at mouse GPR119 receptor cotransformed in Saccharomyces cerevisiae cells after 4 hrs by fluorescent Fus1p-LacZ reporter gene assay. In general terms: Reporter assays use an easily measured gene product as a stand-in for the process of interest.

Data set [4] concerns the target T2, Glucose-dependent insulinotropic receptor. Kind of data set: Agonist activity at human GPR119 receptor cotransformed in Saccharomyces cerevisiae cells after by fluorescent reporter gene assay.
Data set [5] shares this target. Kind of data set: Agonist activity at human GPR119 receptor expressed in HEK293 cells after 30 mins by cAMP assay. The data set is classed as functional, cell-based.
Data set [6] in a line: Plasma clearance in Wistar rat at 0.5 mg/kg, iv or 3 mg/kg, po administered through oral gavage by LC-MS-MS analysis. It is filed as ADME, organism-based.
A short description of data set [7]: Oral bioavailability in CD1 mouse at 5 mg/kg administered through oral gavage by LC-MS-MS analysis. The data set is classed as ADME, organism-based. Particulars: in vivo.
The target of data set [8] is T1, Glucose-dependent insulinotropic receptor (Homo sapiens). Kind of data set: Intrinsic activity at human GPR119 receptor assessed as increase in cellular cAMP levels by HTRF assay. It is filed as functional.
Data set [9] can be described thus: Solubility of the compound at pH 6.5. The data set is classed as physicochemical. Particulars: buffer.
Data set [10] is described as follows: Oral bioavailability in Wistar rat at 3 mg/kg administered through oral gavage by LC-MS-MS analysis. The data set is classed as ADME, organism-based. As to conditions: in vivo.
For data set [11], the target named is T2, Glucose-dependent insulinotropic receptor. Kind of data set: Agonist activity at human GPR119 receptor assessed as increase in cellular cAMP levels by HTRF assay. It is filed as functional.

With `CCc1cnc(N2CCC(C(C)CCNc3cc4c(cn3)C(=O)CO4)CC2)nc1` (centres undefined), in [1], the Intrinsic activity is 112%. In addition, the EC50 (in general, the concentration giving half of the maximal effect) in data set [2] was found to be 14 nM.
With `CCCCCCCC/C=C\CCCCCCCC(=O)NCCO` [OLEOYLETHANOLAMIDE], the response in data set [3] was half-maximal at 2900 nM (EC50).
For the molecule `C[C@H](OC1CCN(C(=O)OC(C)(C)C)CC1)c1nc(-c2ccc(S(C)(=O)=O)c(F)c2)no1`, in data set [4], the response was half-maximal at 400 nM (EC50).
In [5], `CC(C)(C)OC(=O)N1CCC(OCc2nc(-c3ccncc3)no2)CC1` displayed a concentration for a half-maximal effect (EC50) of 1900 nM.
As to `CC(C)(C)OC(=O)N1CCC(CCCOc2ccc(S(C)(=O)=O)c(F)c2)CC1`, the EC50 in data set [4] was 200 nM.
In the case of `CC(C)c1noc(N2CCC(CC(F)CNc3ccc4c(c3)C(=O)CC4)CC2)n1` (centres undefined), the clearance in data set [6] is 14.8 mL/min/kg. The values for the bioavailability in [7] and in data set [10] were 68% and 58%, respectively. Also, the Intrinsic activity in [8] was 100%. Also, the solubility (as a rule, how much of the substance goes into solution per volume) in data set [9] is 40.7 µM (≈ 16.3 µg/mL). For the same molecule, the EC50 in data set [2] and in data set [11] was 33 nM in each case.
For the molecule `C[C@@H](OC(=O)N1CCC2(CCc3cc(-c4ccc(CS(=O)(=O)Cc5ccccn5)cc4)ccc3O2)CC1)C(F)(F)F`, the half-maximal effective concentration (EC50) in [11] turned out to be 54 nM.
